Test results taken from publication PMC11032350, “SMS121, a new inhibitor of CD36, impairs fatty acid uptake and viability of acute myeloid leukemia” (Scientific Reports, 2024).

Biological target: T1, CD36 (Homo sapiens, UniProt P16671)
T1 construct: commercial biotinylated His, Avitag human CD36, captured on streptavidin CAP chip
Assay: SPR (Biacore […]), steady-state […] fit
Type: binding

T1 sequence (P16671 30-439 limits assumed): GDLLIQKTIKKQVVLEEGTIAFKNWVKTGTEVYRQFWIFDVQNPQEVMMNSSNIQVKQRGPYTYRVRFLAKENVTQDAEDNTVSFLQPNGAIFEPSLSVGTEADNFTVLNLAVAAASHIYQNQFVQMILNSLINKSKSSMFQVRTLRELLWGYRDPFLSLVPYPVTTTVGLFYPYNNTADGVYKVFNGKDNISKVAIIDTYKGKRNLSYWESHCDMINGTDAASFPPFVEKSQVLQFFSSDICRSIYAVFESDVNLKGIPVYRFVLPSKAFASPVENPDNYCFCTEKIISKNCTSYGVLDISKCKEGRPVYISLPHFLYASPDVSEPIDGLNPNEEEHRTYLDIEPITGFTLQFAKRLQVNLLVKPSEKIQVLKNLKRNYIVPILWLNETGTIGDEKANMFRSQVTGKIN

COc1cc(/C=C/C(=O)c2ccc(N(C)C)cc2)ccc1OCC(=O)O [SMS121, (E)-2-(4-(3-(4-(dimethylamino)phenyl)-3-oxoprop-1-en-1-yl)-2-methoxyphenoxy) acetic acid]
Kd: ~5 µM
